Target: RAC-alpha serine/threonine-protein kinase (Homo sapiens, UniProt P31749)
Assay: Inhibition of PI3K-mediated Akt phosphorylation at Ser 473 in human U87MG cells after 2 hrs by alphascreen assay

RAC-alpha serine/threonine-protein kinase, sequence (P31749 whole entry): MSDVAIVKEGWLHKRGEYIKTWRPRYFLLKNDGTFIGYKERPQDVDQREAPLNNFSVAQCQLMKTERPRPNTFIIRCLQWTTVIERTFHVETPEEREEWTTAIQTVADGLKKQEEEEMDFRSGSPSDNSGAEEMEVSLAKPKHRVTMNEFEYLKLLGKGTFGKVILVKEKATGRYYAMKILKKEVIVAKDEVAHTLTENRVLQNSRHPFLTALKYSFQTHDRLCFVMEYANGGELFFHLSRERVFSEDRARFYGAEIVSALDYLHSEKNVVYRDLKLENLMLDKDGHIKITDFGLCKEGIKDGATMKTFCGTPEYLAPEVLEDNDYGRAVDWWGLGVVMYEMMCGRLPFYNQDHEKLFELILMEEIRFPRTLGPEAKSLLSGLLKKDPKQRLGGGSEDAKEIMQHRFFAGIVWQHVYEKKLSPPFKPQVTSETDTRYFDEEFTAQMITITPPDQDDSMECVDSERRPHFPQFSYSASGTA

SMILES | IC50 [nM]
CC(=O)Nc1nc2ccc(-c3cnc(Cl)c(NS(=O)(=O)c4ccc(F)cc4)c3)cc2o1 | 1100
O=S(=O)(Nc1cc(-c2ccc3nccn3c2)cnc1Cl)c1ccc(F)cc1 | 574
O=S(=O)(Nc1cc(-c2ccc3sncc3c2)cnc1Cl)c1ccc(F)cc1 | > 12000
Nc1cn2nc(-c3cnc(Cl)c(NS(=O)(=O)c4ccc(F)cc4)c3)ccc2n1 | 415
O=S(=O)(Nc1cc(-c2ccc3nc[nH]c3c2)cnc1Cl)c1ccc(F)cc1 | > 12000
O=S(=O)(Nc1cc(-c2ccc3nncn3c2)cnc1Cl)c1ccc(F)cc1 | > 12000
Nc1nc2ccc(-c3cnc(Cl)c(NS(=O)(=O)c4ccc(F)cc4)c3)cc2[nH]1 | > 12000
O=S(=O)(Nc1cc(-c2ccc3ncoc3c2)cnc1Cl)c1ccc(F)cc1 | > 12000

Continued, values first:

IC50 [nM] | SMILES
118 | CC(=O)Nc1cn2cc(-c3cnc(Cl)c(NS(=O)(=O)c4ccc(F)cc4)c3)ccc2n1
> 12000 | Nc1cn2cc(-c3cnc(Cl)c(NS(=O)(=O)c4ccc(F)cc4)c3)ccc2n1
13 | CC(=O)Nc1cn2nc(-c3cnc(Cl)c(NS(=O)(=O)c4ccc(F)cc4)c3)ccc2n1
335 | CC(=O)Nc1nc2ccc(-c3cnc(Cl)c(NS(=O)(=O)c4ccc(F)cc4)c3)cc2[nH]1
101 | Nc1nc2ccc(-c3cnc(Cl)c(NS(=O)(=O)c4ccc(F)cc4)c3)cc2o1

— BindingDB's records for doi:10.1021/jm2004442 (Amgen, 2011)
